In ChEMBL document CHEMBL5726876, “NHE3-binding compounds and methods for inhibiting phosphate transport” (2019):

Assay: Cell-based activity under Prompt Conditions: Cell-based activity under Prompt Conditions. Rat or human NHE3-mediated Na+-dependent H+ antiport was measured using a modification of the pH sensitive dye method originally reported by Paradiso (PNAS USA. 81:7436-7440, 1984). Opossum kidney (OK) cells were obtained from the ATCC and propagated per their instructions. The rat NHE3 gene (GenBank M85300) or the human NHE3 gene (GenBank NM_004174.1) was introduced into OK cells via electroporation, and cells were seeded into 96 well plates and grown overnight. Medium was aspirated from the wells, cells were washed twice with NaCl-HEPES buffer (100 mM NaCl, 50 mM HEPES, 10 mM glucose, 5 mM KCl, 2 mM CaCl2, 1 mM MgCl2, pH 7.4), then incubated for 30 min at room temperature with NH4Cl-HEPES buffer (20 mM NH4Cl, 80 mM NaCl, 50 mM HEPES, 5 mM KCl, 2 mM CaCl2, 1 mM MgCl2, pH 7.4) containing 5 μM bis(acetoxymethyl) 3,3′-(3′,6′-bis(acetoxymethoxy)-5-((acetoxymethoxy)carbonyl)-3-oxo-3H-spiro[isobenzofuran-1,9′-xanthene]-2′,7′-diyl)dipropanoate (BCECF-AM).Cells were washed twice with Ammonium free, Na+-free HEPES (100 mM choline, 50 mM HEPES, 10 mM glucose, 5 mM KCl, 2 mM CaCl2, 1 mM MgCl2, pH 7.4) and incubated in the same buffer for 10 minutes at room temperature to lower intracellular pH. […] Initial rates were plotted as the average 2 or more replicates, and pIC50 values were estimated using GraphPad Prism.

CN(CC(=O)O)CC(=O)NC(CCC(=O)NCCOCCOCCNS(=O)(=O)c1cccc([C@@H]2CN(C)Cc3c(Cl)cc(Cl)cc32)c1)(CCC(=O)NCCOCCOCCNS(=O)(=O)c1cccc([C@@H]2CN(C)Cc3c(Cl)cc(Cl)cc32)c1)CCC(=O)NCCOCCOCCNS(=O)(=O)c1cccc([C@@H]2CN(C)Cc3c(Cl)cc(Cl)cc32)c1
IC50: 0.0501 µM

CN(C)[C@H]1Cc2c(Cl)cc(Cl)cc2[C@@H]1Oc1ccc(S(=O)(=O)NCCOCCOCCNC(=O)NCCCCNC(=O)NCCOCCOCCNS(=O)(=O)c2ccc(O[C@H]3c4cc(Cl)cc(Cl)c4C[C@@H]3N(C)C)cc2)cc1
IC50: 0.00631 µM

CN1Cc2c(Cl)cc(Cl)cc2[C@H](c2cccc(S(=O)(=O)NCCOCCOCCNC(=O)CCC(CCC(=O)NCCOCCOCCNS(=O)(=O)c3cccc([C@@H]4CN(C)Cc5c(Cl)cc(Cl)cc54)c3)(CCC(=O)NCCOCCOCCNS(=O)(=O)c3cccc([C@@H]4CN(C)Cc5c(Cl)cc(Cl)cc54)c3)NC(=O)NC[C@H](O)[C@@H](O)[C@H](O)[C@H](O)CO)c2)C1
IC50: 0.0562 µM

CNC(=O)NC(CCC(=O)NCCOCCOCCNS(=O)(=O)c1cccc([C@@H]2CN(C)Cc3c(Cl)cc(Cl)cc32)c1)(CCC(=O)NCCOCCOCCNS(=O)(=O)c1cccc([C@@H]2CN(C)Cc3c(Cl)cc(Cl)cc32)c1)CCC(=O)NCCOCCOCCNS(=O)(=O)c1cccc([C@@H]2CN(C)Cc3c(Cl)cc(Cl)cc32)c1
IC50: 0.794 µM

CN1Cc2c(Cl)cc(Cl)cc2[C@H](c2cccc(S(=O)(=O)NCCOCCOCCNC(=O)CCC(CCC(=O)NCCOCCOCCNS(=O)(=O)c3cccc([C@@H]4CN(C)Cc5c(Cl)cc(Cl)cc54)c3)(CCC(=O)NCCOCCOCCNS(=O)(=O)c3cccc([C@@H]4CN(C)Cc5c(Cl)cc(Cl)cc54)c3)NC(=O)N(C)C[C@H](O)[C@@H](O)[C@H](O)[C@H](O)CO)c2)C1
IC50: 0.00794 µM

CN1Cc2c(Cl)cc(Cl)cc2[C@H](c2cccc(S(=O)(=O)NCCOCCOCCNC(=O)CCC(CCC(=O)NCCOCCOCCNS(=O)(=O)c3cccc([C@@H]4CN(C)Cc5c(Cl)cc(Cl)cc54)c3)(CCC(=O)NCCOCCOCCNS(=O)(=O)c3cccc([C@@H]4CN(C)Cc5c(Cl)cc(Cl)cc54)c3)NS(C)(=O)=O)c2)C1
IC50: 0.631 µM

CN1Cc2c(Cl)cc(Cl)cc2[C@H](c2cccc(S(=O)(=O)NCCOCCOCCNC(=O)CCC(CCC(=O)NCCOCCOCCNS(=O)(=O)c3cccc([C@@H]4CN(C)Cc5c(Cl)cc(Cl)cc54)c3)(CCC(=O)NCCOCCOCCNS(=O)(=O)c3cccc([C@@H]4CN(C)Cc5c(Cl)cc(Cl)cc54)c3)NC(=O)CCC(=O)O)c2)C1
IC50: 0.0316 µM

CN1Cc2c(Cl)cc(Cl)cc2[C@H](c2cccc(S(=O)(=O)N(C)CCOCCOCCNC(=O)CCN(CCC(=O)NCCOCCOCCN(C)S(=O)(=O)c3cccc([C@@H]4CN(C)Cc5c(Cl)cc(Cl)cc54)c3)CCC(=O)NCCOCCOCCN(C)S(=O)(=O)c3cccc([C@@H]4CN(C)Cc5c(Cl)cc(Cl)cc54)c3)c2)C1
IC50: 0.316 µM

CN1Cc2c(Cl)cc(Cl)cc2[C@H](c2cccc(S(=O)(=O)NCCOCCOCCNC(=O)CCC(CCC(=O)NCCOCCOCCNS(=O)(=O)c3cccc([C@@H]4CN(C)Cc5c(Cl)cc(Cl)cc54)c3)(CCC(=O)NCCOCCOCCNS(=O)(=O)c3cccc([C@@H]4CN(C)Cc5c(Cl)cc(Cl)cc54)c3)NC(N)=O)c2)C1
IC50: 0.316 µM

O=C(NCCCCNC(=O)NCCOCCOCCNS(=O)(=O)c1ccc(O[C@H]2c3cc(F)ccc3C[C@@H]2N2CCCCC2)cc1)NCCOCCOCCNS(=O)(=O)c1ccc(O[C@H]2c3cc(F)ccc3C[C@@H]2N2CCCCC2)cc1
IC50: 0.00126 µM

CN1Cc2c(Cl)cc(Cl)cc2[C@H](c2cccc(S(=O)(=O)NCCOCCOCCNC(=O)CCC(CCC(=O)NCCOCCOCCNS(=O)(=O)c3cccc([C@@H]4CN(C)Cc5c(Cl)cc(Cl)cc54)c3)(CCC(=O)NCCOCCOCCNS(=O)(=O)c3cccc([C@@H]4CN(C)Cc5c(Cl)cc(Cl)cc54)c3)NC(=O)CCCC(=O)O)c2)C1
IC50: 0.0501 µM

CCN(CCOCCOCCNC(=O)NCCCN(CCCNC(=O)NCCOCCOCCN(CC)S(=O)(=O)c1cccc([C@@H]2CN(C)Cc3c(Cl)cc(Cl)cc32)c1)CCCNC(=O)NCCOCCOCCN(CC)S(=O)(=O)c1cccc([C@@H]2CN(C)Cc3c(Cl)cc(Cl)cc32)c1)S(=O)(=O)c1cccc([C@@H]2CN(C)Cc3c(Cl)cc(Cl)cc32)c1
IC50: 1 µM

CN(C)CC(=O)NC(CCC(=O)NCCOCCOCCNS(=O)(=O)c1cccc([C@@H]2CN(C)Cc3c(Cl)cc(Cl)cc32)c1)(CCC(=O)NCCOCCOCCNS(=O)(=O)c1cccc([C@@H]2CN(C)Cc3c(Cl)cc(Cl)cc32)c1)CCC(=O)NCCOCCOCCNS(=O)(=O)c1cccc([C@@H]2CN(C)Cc3c(Cl)cc(Cl)cc32)c1
IC50: 0.0794 µM

CN(C)[C@H]1Cc2ccc(F)cc2[C@@H]1Oc1ccc(S(=O)(=O)NCCOCCOCCNC(=O)NCCCCNC(=O)NCCOCCOCCNS(=O)(=O)c2ccc(O[C@H]3c4cc(F)ccc4C[C@@H]3N(C)C)cc2)cc1
IC50: < 10 µM

CN1Cc2c(Cl)cc(Cl)cc2[C@H](c2cccc(S(=O)(=O)NCCOCCOCCNC(=O)CCC(CCC(=O)NCCOCCOCCNS(=O)(=O)c3cccc([C@@H]4CN(C)Cc5c(Cl)cc(Cl)cc54)c3)(CCC(=O)NCCOCCOCCNS(=O)(=O)c3cccc([C@@H]4CN(C)Cc5c(Cl)cc(Cl)cc54)c3)NC(=O)N(C)C)c2)C1
IC50: 2.51 µM

CC(C)CCC[C@@H](C)[C@H]1CC[C@H]2[C@@H]3CC=C4C[C@@H](OC(=O)NCCOCCOCCOCCNS(=O)(=O)c5cccc([C@@H]6CN(C)Cc7c(Cl)cc(Cl)cc76)c5)CC[C@]4(C)[C@H]3CC[C@]12C
IC50: < 10 µM

CN1Cc2c(Cl)cc(Cl)cc2[C@H](c2cccc(S(=O)(=O)NCCOCCOCCNC(=O)CCC(CCC(=O)NCCOCCOCCNS(=O)(=O)c3cccc([C@@H]4CN(C)Cc5c(Cl)cc(Cl)cc54)c3)(CCC(=O)NCCOCCOCCNS(=O)(=O)c3cccc([C@@H]4CN(C)Cc5c(Cl)cc(Cl)cc54)c3)NC(=O)NCCN3CCOCC3)c2)C1
IC50: 0.0631 µM

N[C@@H]1CCCN([C@H]2Cc3c(Cl)cc(Cl)cc3[C@@H]2Oc2ccc(S(=O)(=O)NCCOCCOCCNC(=O)NCCCCNC(=O)NCCOCCOCCNS(=O)(=O)c3ccc(O[C@H]4c5cc(Cl)cc(Cl)c5C[C@@H]4N4CCC[C@@H](N)C4)cc3)cc2)C1
IC50: 0.0398 µM

CN1Cc2c(Cl)cc(Cl)cc2[C@H](c2cccc(S(=O)(=O)NCCOCCOCCNC(=O)CCC(CCC(=O)NCCOCCOCCNS(=O)(=O)c3cccc([C@@H]4CN(C)Cc5c(Cl)cc(Cl)cc54)c3)(CCC(=O)NCCOCCOCCNS(=O)(=O)c3cccc([C@@H]4CN(C)Cc5c(Cl)cc(Cl)cc54)c3)NC(=O)COCC(=O)O)c2)C1
IC50: 0.0251 µM

O=C(NCCCCNC(=O)NCCOCCOCCNC(=O)Nc1cccc(O[C@H]2c3ccccc3C[C@@H]2N2CCCCC2)c1)NCCOCCOCCNC(=O)Nc1cccc(O[C@H]2c3ccccc3C[C@@H]2N2CCCCC2)c1
IC50: < 10 µM

CN1Cc2c(Cl)cc(Cl)cc2[C@H](c2cccc(S(=O)(=O)NCCOCCOCCNC(=O)CCC(CCC(=O)NCCOCCOCCNS(=O)(=O)c3cccc([C@@H]4CN(C)Cc5c(Cl)cc(Cl)cc54)c3)(CCC(=O)NCCOCCOCCNS(=O)(=O)c3cccc([C@@H]4CCN(C)c5c(Cl)cc(Cl)cc54)c3)NC(=O)[C@H]3CCCC[C@@H]3C(=O)O)c2)C1
IC50: 0.126 µM

CN1Cc2c(Cl)cc(Cl)cc2C(c2cccc(S(=O)(=O)NCCOCCOCCNC(=O)CCC(CCC(=O)NCCOCCOCCNS(=O)(=O)c3cccc([C@@H]4CN(C)Cc5c(Cl)cc(Cl)cc54)c3)(CCC(=O)NCCOCCOCCNS(=O)(=O)c3cccc([C@@H]4CN(C)Cc5c(Cl)cc(Cl)cc54)c3)N(C)C)c2)C1 (some centres not stated)
IC50: 0.0676 µM
